From patent US20130123255A1, “COMBINATION OF A PI3K INHIBITOR AND A MEK INHIBITOR” (CHUGAI SEIYAKU KABUSHIKI KAISHA, priority 2011, published 2013)

Key:
[1] = system: ERK phosphorylation in HCT116 cells; assay: Western blot of MAPK pathway, ERK phosphorylation; type: cell-based
Protocol: (§1) To investigate the combination effect on PI3K and MAPK pathway, compound of formula (I) and compound of formula (II) were tested on HCT116 cells.
(§2) 5×10^5 of cells were treated with compound of formula (I) alone, compound of formula (II) alone or the combination thereof at 1 μM for 24 hours in 6-well plate. After that, HCT116 cells were lysed with Cell Lysis Buffer (Cell Signaling Technology) containing protease and phosphatase inhibitors. The lysates were denatured and then subjected to SDS-PAGE. After electroblotting, the polyvinylidene fluoride membranes were blocked with Blocking One (Nacalai Tesque) for 1 h. Membranes were then incubated with primary antibodies purchased from Cell Signaling Technology Inc., and anti-actin antibody purchased from Santa Cruz Biotechnology over night at 4° C., followed by washing three times with 0.1% Tween 20 (Nacalai Tesque) in TBS buffer (TBS-T buffer; TaKaRa Bio). This was followed by 0.5 to 1 h incubation at room temperature with secondary antibodies (Cell Signaling Technology). Then, membranes were washed four times with TBS-T buffer, followed by incubation with ECL or ECL-plus solutions (GE Healthcare). Signals were detected using LAS-4000 (Fujifilm) according to the manufacturer's instructions.

[2] = system: Akt phosphorylation in HCT116 cells; assay: Western blot of PI3K pathway, Akt phosphorylation; type: cell-based; details: 1 μM, 24 hours, FIG. 3
Protocol: as §1, §2

O=C(NOCCO)c1cc(CN2OCCCC2=O)c(F)c(F)c1Nc1ccc(I)cc1F [compound of formula (I), 3,4-difluoro-2-(2-fluoro-4-iodo-phenylamino)-N-(2-hydroxy-ethoxy)-5-(3-oxo-[1,2]oxazinan-2-ylmethyl)-benzamide] was tested, and the “phosphorylation of ERK” value [1] was “suppressed”.

In the case of CS(=O)(=O)N1CCc2c(-c3cnc(N)nc3)nc(N3CCOCC3)nc21 [compound of formula (II), 5-(7-methanesulfonyl-2-morpholin-4-yl-6,7-dihydro-5H-pyrrolo[2,3-d]pyrimidin-4-yl)-pyrimidin-2-ylamine], the “phosphorylation of Akt” value [2] is reported as “suppressed”.
